The nature of series [1]: Absorption upon intranasal administration to rats. Type of series: in vivo, Male wistar rats. The note with it: for MRT as compared with oral administration / Tmax as compared with oral administration / bioavailability: intranasal administration; for MAT / MRT / Tmax: intranasal; for bioavailability / MRT / Tmax: male, Wistar, rat, inhaled or intranasal. From the text:
Male wistar rats (eight weeks age) were anesthetized by intraperitoneal injection of 1 g/kg of urethane. Neck was incised to expose a trachea and polyethylene tube (SP 120; Natsume Seisakusho) was inserted into the trachea. Then a part of esophagus was opened by cutting and a polyethylene tube of the same diameter was inserted to the direction of choana and the end was tightly sealed with absorbent cotton and adhesive. In order to prevent a leakage of drug solution from nasopalatine canal, said canal of upper chin opening to mouth was closed by synthetic adhesive. The drug was dissolved in a 0.1% tartaric acid solution and the drug of 500 µl/kg was administered by a micropipette from outer nasal cavity followed by closing both outer nasal cavities immediately. As a control, the rat to which the drug was intravenously injected was prepared. After the injection; aliquot of blood was collected from time to time from jugular vein using a heparin-treated syringe and centrifuged to give plasma. Certain amount of the resulting plasma was collected, extracted with tert-butyl-methyl-ether three times, and the organic phase was evaporated to dryness and dissolved in the initial solvent for HPLC. A certain amount thereof was injected into an HPLC connected to an ultraviolet absorption detector and the drug concentration in the plasma was measured by reversed phase column. Time for arriving the maximum blood concentration (Tmax), mean residence time (MRT) and mean absorption time (MAT) were calculated from the measured value.

Series [2] in a line: Absorption by percutaneous administration in rats. As to conditions: hairless rats, Dose 10 mg/kg; for MRT / Tmax: rat. In kind it is in vivo. Here is the method: Abdominal skin of hairless rats (eight weeks age, Nippon SLC) was wiped with 70% ethanol, and 0.25 ml/kg of a drug solution (40 mg/ml DMSO) was applied to an area of 8 cm^2 (2 x 4 cm) and the applied area was coated with a film coating agent (Permiaid S, Nitto Medical) and fixed with an adhesive bandage (Elastopore, Nichiban). After application of the drug solution, aliquot of blood was collected from time to time using a heparin-treated syringe from jugular vein and centrifuged to give plasma. Aliquot plasma was extracted with tert-butyl-methyl-ether three times, and the organic phase was evaporated to dryness and dissolved in the initial solvent for HPLC. A certain amount thereof was injected into a HPLC connected to an ultraviolet absorption detector and the drug concentration in the plasma was measured by means of a reversed phase column. Pharmacokinetic parameters were calculated from the measured data by the same manner as in Experiment 3.

Series [3] has as its system smooth muscle of cavernous body of rabbits. The series is described as follows: Enhancement of nitroprusside relaxation of isolated cavernous body strips. As to conditions: relaxation by 1 µM nitroprusside compared with solvent. The protocol:
Rabbits were anesthetized by an intravenous injection of 40-50 mg/kg of pentobarbital (Nembutal™ manufactured by Dainippon Pharmaceutical Co., Ltd.), blood was drained out by incision of carotid artery, and penis was taken out and placed in an ice-cooled nutrient solution (Krebs bicarbonate containing 118 mM of NaCl, 4.7 mM of KCl, 1.2 mM of KH2PO4, 1.2 mM of MgSO4.7H2O, 1.5 mM of CaCl2, 25 mM of NaHCO3, 11 mM of glucose and 0.023 mM of EDTA·2Na). After the tissues around the albuginea were incised in a nutrient solution, the albuginea was incised to prepare cavernous body of the penis. The cavernous body was cut and both ends of the strips of about 1 cm length were ligated by nylon yarn. One end was fixed to a supporting rod, transferred into a 20-ml Magnus tube which was filled with the nutrient solution, passed with a mixed gas of 95% oxygen and 5% carbon dioxide and kept at 37 °C while another end of the strip was connected to an isometric transducer (TB-611T; NIHON KOHDEN CORP.) placed on the upper area and a stress load of about 2 g was applied. After stabilization of 60 minutes or longer, strips were contracted with 10 µM of phenylephrine in the presence of 5 µM of guanetidine and 1 µM of atropine and, after stabilization, 1 µM or 100 µM of nitroprusside was added whereby relaxation by nitroprusside was ascertained. […] Rate of relaxation by 1 µM of nitroprusside after addition of the sample was compared with that after addition of the solvent and the increasing rate was calculated. […]

The target of series [4] is T1, PDE type V (Canis lupus familiaris, UniProt O77746).
T1 construct: By elution with a sodium chloride gradient (0 - 0.4 M), PDE types V and III were separated from the other isozymes; from tissue; host or cells: canine aorta
The series is described as follows: PDE inhibiting activity, type V. As to conditions: PDE purified from canine aorta, 1 µM substrate cGMP or cAMP. Type of series: biochemical, dog.
Description: The canine aorta was minced and homogenized with a Waring Blender and a glass homogenizer in six volumes of a Tris-HCl buffer solution (pH 7.5, 20 mM) containing 2 mM magnesium acetate, 5 mM ethylenediaminetetraacetic acid (EDTA), 100 µg/mL of phenylmethylsulforyl fluoride and 15 mM 2-mercaptoethanol (2-ME), and centrifuged at 1200 x g for 30 min. […] By elution with a sodium chloride gradient (0 - 0.4 M), PDE types V and III were separated from the other isozymes. […] The resulting precipitated fraction was similarly applied to the DEAE-trisacryl column and eluted by a sodium chloride gradient (0 - 0.4 M) so as to separate PDE type I.
Specifically, a purified PDE sample was added to 50 mM Tris-HCl buffer solution (pH 7.5) containing 1 µM of substrate cGMP or cAMP (containing tritium-labelled cGMP or cAMP), 1 mM EGTA and 2 mM magnesium acetate. For PDE activity measurement, enzymatically produced 5' GMP or 5' AMP was further hydrolyzed into guanosine or adenosine with snake venom and separated from the substrate by means of an ion-exchange resin (Dowex 1-X2), followed by measuring with a scintillation counter. […] The final concentration of DMSO was adjusted to be no more than 2% in consideration of the effect on PDE activity.

Series [5] relates to male wistar rats. Briefly: Toxicity test, oral administration for four days. The note with it: 100 mg/kg/day orally for four days.
For series [6], the system named is PDE type I. The series is described as follows: PDE inhibiting activity, type I. Type of series: biochemical, dog. The note with it: PDE purified from canine aorta; 1 µM substrate cGMP or cAMP; read-out: Inhibition Activity IC50 (µM) Type I. The protocol:
On the basis of the method of Lugnier et al. (Biochem. Pharmacol., 35, 1743-1751, 1986), PDE was purified from the aorta in a dog. The canine aorta was minced and homogenized with a Waring Blender and a glass homogenizer in six volumes of a Tris-HCl buffer solution (pH 7.5, 20 mM) containing 2 mM magnesium acetate, 5 mM ethylenediaminetetraacetic acid (EDTA), 100 µg/mL of phenylmethylsulforyl fluoride and 15 mM 2-mercaptoethanol (2-ME), and centrifuged at 1200 x g for 30 min. The supernatant was separated and salted out with ammonium sulfate which was added to 45% saturation. The resulting precipitated fraction was resuspended in a Tris-HCl buffer solution (pH 7.5, 20 mM) containing 2 mM magnesium acetate and 1 mM 2-ME, dialyzed overnight and applied to a DEAE-trisacryl column (DEAE […] M:IBF). By elution with a sodium chloride gradient (0 - 0.4 M), PDE types V and III were separated from the other isozymes. The supernatant fraction of 45% saturated ammonium sulfate was further mixed with ammonium sulfate to 65% saturation and salted out. The resulting precipitated fraction was similarly applied to the DEAE-trisacryl column and eluted by a sodium chloride gradient (0 - 0.4 M) so as to separate PDE type I.
The thus obtained PDE types V, III and I were measured for their activity in accordance with the method of Thompson et al. (Adv. Cyclic Nucleotide Res., 10, 69-72, 1979) and the method of Wells et al. (Biochim. Biophys. Acta, 384, 430-443, 1975). Specifically, a purified PDE sample was added to 50 mM Tris-HCl buffer solution (pH 7.5) containing 1 µM of substrate cGMP or cAMP (containing tritium-labelled cGMP or cAMP), 1 mM EGTA and 2 mM magnesium acetate. For PDE activity measurement, enzymatically produced 5' GMP or 5' AMP was further hydrolyzed into guanosine or adenosine with snake venom and separated from the substrate by means of an ion-exchange resin (Dowex 1-X2), followed by measuring with a scintillation counter. The activity of each test compound was determined as a percentage of the PDE activity measured when it was added as a dimethyl sulfoxide solution (DMSO) and its IC50 (50% inhibition concentration) was calculated by the probit method. The final concentration of DMSO was adjusted to be no more than 2% in consideration of the effect on PDE activity.

Where [7] appears, read: read-out: Inhibition Activity IC50 (µM) Type V.

Read-outs that look alike come from different tables or passages of the source. Where only a bound is given, the exact number is not on record here.

For orientation: bioavailability means dose-corrected exposure relative to a reference, in per cent. Low readings indicate little systemic uptake, high ones much systemic uptake. In general, MRT refers to the average time that molecules of a dose stay in the body. By Tmax is commonly meant the time from dosing to the highest level. In general, IC50 refers to the concentration that inhibits the measured activity by half.

For the compound `CS(=O)(=O)O.O=c1c(Cc2cccnc2)cn2c3cc(Br)ccc3c3cc(OCCCO)cc1c32` [Example 52, 9-bromo-2-(3-hydroxypropyloxy)-5-(3-pyridylmethyl)-4H-pyrido[3,2,1-jk]carbazol-4-one methanesulfonate], the “MRT as compared with oral administration” value in series [1] is given as “same”. In series [1], the “Tmax as compared with oral administration” value is “same or shortened”. The results for the “MAT” value in series [1] (Dose 0.3 mg/kg) and in series [2] were 1 to 2 h and 7.9 h, respectively. The compound also yielded a bioavailability in series [1] (plasma) of about 100%. Also, the MRT in series [1] (plasma, Dose 0.3 mg/kg) was 2 to 3 h; in series [2] (plasma, topical), 8.5 h. In addition, the Tmax in series [1] (plasma, Dose 0.3 mg/kg) is 0.2 to 0.5 h; in series [2] (plasma, topical), 1 h. Moreover, the “Enhancing Rate of Relaxation (%)” value amounted to 90.8% in series [3] (Final Added Amount 100 nM) and 190.9% in series [3] (Final Added Amount 1000 nM). The IC50 in series [4] (setting [7]) turned out to be 0.0057 µM. Also, in series [5], the “abnormal change in body weight and general symptoms” value is on record as “no abnormal change”. The dead case entry in series [5] (until the next morning of the completion of the administration) was “no dead case”.
For the compound `CCCc1nn(C)c2c(=O)[nH]c(-c3cc(S(=O)(=O)N4CCN(C)CC4)ccc3OCC)nc12.O=C(O)CC(O)(CC(=O)O)C(=O)O` [sildenafil, 5-[2-ethoxy-5-(4-methylpiperazin-1-ylsulfonyl)phenyl]-1-methyl-3-propyl-6,7-dihydro-1H-pyrazolo[4,3-d]pyrimidin-7-one-citrate, reference compound], in series [1], the “MRT as compared with oral administration” value was “same”. Moreover, the “Tmax as compared with oral administration” value in series [1] was “same or shortened”. Further, the “MAT” value in series [1] (Dose 1.0 mg/kg) is 1 to 2 h; in series [2] it was 14.3 h. In series [1] (in vivo), the bioavailability is about 100%. Besides, the mean residence time (MRT) in series [1] (in vivo, Dose 1.0 mg/kg) is 2 to 3 h; in series [2] (in vivo), 14.7 h. Further, the time of peak concentration (Tmax) was 0.2 to 0.5 h in series [1] (in vivo, Dose 1.0 mg/kg) and 1 h in series [2] (in vivo). The IC50 in series [6] was 0.46 µM; in series [4] (Inhibition Activity IC50 (µM) Type V), 0.0018 µM. Also, the “Enhancing Rate of Relaxation (%)” value in series [3] (Final Added Amount 1000 nM) worked out at 189.1%.
On to `CCOC(=O)COc1cc2c(=O)c(C)cn3c4ccc(Br)cc4c(c1)c23` [Example 17, 10-bromo-2-ethoxycarbonylmethyloxy-5-methyl-4H-pyrido[3,2,1-jk]carbazol-4-one], for which the 50% inhibitory concentration (IC50) in series [6] is over 30 µM; in series [4] (setting [7]) it was 0.0035 µM.

The record behind these values is patent publication EP0992240A1, “THERAPEUTIC AGENT FOR ERECTION FAILURE” (MOCHIDA PHARMACEUTICAL CO., LTD., priority 1997, dated 1998).
